{"source": "patent US20200353179A1", "about": "“Device for Deterring Abuse of Drugs” (EIGHTY EIGHT PHARMA, INC., priority 2017, published 2020)", "origin": "cited, not measured here", "key": {"[1]": {"system": "pharmacologic effects of intravenously administered heroin"}, "[2]": {"settings": "800 mg daily for up to one week"}}, "note": "Where a name gives a salt, the structure may show the parent alone. Read-outs that look alike come from different tables or passages of the source.", "data": [{"smiles": "O=C1CC[C@@]2(O)[C@H]3Cc4ccc(O)c5c4[C@@]2(CCN3CC2CC2)[C@H]1O5", "note": "[naltrexone hydrochloride]", "values": [{"measurement": "duration of blockade of pharmacologic effects of heroin", "setting": "[1]; 50 mg naltrexone hydrochloride, 25 mg intravenously administered heroin", "result": "≤ 24", "unit": "hours"}, {"measurement": "duration of blockade", "setting": "[1]; doubling the dose of naltrexone hydrochloride", "result": 48, "unit": "h"}, {"measurement": "effect on the subjective effects of intravenously administered opioids", "setting": "[1]; intravenously administered opioids", "result": "markedly attenuates or completely blocks, reversibly"}, {"measurement": "duration of blockade", "setting": "[1]; tripling the dose of naltrexone hydrochloride", "result": "about 72 hours"}, {"measurement": "toxicity in human subjects", "setting": "[2]", "result": "no evidence of toxicity"}, {"measurement": "signs produced by high doses", "setting": "animals; high doses, generally >1,000 mg/kg", "result": "salivation, depression/reduced activity, tremors, and convulsions"}, {"measurement": "cause of mortalities in animals", "setting": "animals; high-dose naltrexone administration", "result": "tonic-clonic convulsions and/or respiratory failure"}]}]}
